Measured values reported in patent publication US20230349922A1, “H2 Blockers Targeting Liver Macrophages for the Prevention and Treatment of Liver Disease and Cancer” (Université de Strasbourg, priority 2020, published 2023).

Experiments:
HCC = details: one animal model study (Furuta et al., 2008), circumstantial evidence; cited from earlier work
natural killer cell = details: patients with transarterial chemoembolization (Nishiguchi et al., 2003); cited from earlier work
[1] = system: prognostic liver signature (PLS); test: cPLS model: reversal of the prognostic liver signature in HCV-infected Huh7.5.1dif cells; type: cell-based, human; details: Huh7.5.1dif cells infected with HCV Jc1 for 7 days, treated 3 additional days; GSEA
[2] = in vivo; cited from earlier work
[3] = in vivo; cited from earlier work; remark: listed apart in the source
[4] = Farup, Scand. J. Gastroenterol., 1988; cited from earlier work
[5] = rodents; cited from earlier work
HRH2/cAMP/PKA axis = test: PLS assessment upon perturbation of the HRH2/cAMP/PKA axis in Huh7.5.1dif cells; type: cell-based, human; details: 48 hours, histamine 10 μM, 8-CPT cAMP 100 μM, H89 10 μM
Protocol: Histamine, 8-CPT, cAMP and H89 Treatment. Huh7.5.1^dif cells were cultured in DMEM containing 1% FBS and 1% DMSO and incubated with histamine (10 μM) or histamine+nizatidine (10 μM) for 48 hours. Fresh medium containing histamine was replenished every 12 hours. For 8-CPT cAMP and H89, Huh7.5.1^dif cells cultured in DMEM 1% DMSO and 1% FBS were incubated with 8-CPT cAMP (100 μM), H89 (1 μM) or DMSO as a control for 48 hours. Fresh medium containing 8-CPT cAMP was replenished every 12 hours.
Transcriptomic Analysis and PLS Calculation. Gene expression profiling and the 32 gene PLS 32 profiling were performed using 250-500 ng total RNA by using either nCounter Digital Analyzer system (NanoString) or the HumanHT-12 beadarray (Illumina) for the time-course experiments. PLS gene expression was normalized according to 6 housekeeping gene expression using GenePattern genomic analysis toolkits (Hoshida, PLOS ONE, 2010, 5: e15543; Peck et al., Genome Biol., 2006, 7: R61; Reich et al., Nature Genet., 2006, 38: 500-501). Induction or suppression of PLS risk signature was determined as previously reported by using Gene Set Enrichment Analysis (GSEA), implemented in GenePattern genomic analysis toolkits (Hoshida, PLOS ONE, 2010, 5: e15543; Peck et al., Genome Biol., 2006, 7: R61; Reich et al., Nature Genet., 2006, 38: 500-501). PLS was always determined by using CTRL cells as references. Results are presented as simplified heatmaps showing the classification of PLS global status as poor or good prognosis and the significance of induction/suppression of PLS genes (log 10 of false discovery rate (FDR) values). For each experiment, heatmaps show: in the upper part: the classification of PLS global status as poor (orange) or good (green) prognosis, and in the bottom part: the significance of induction (red) or suppression (blue) of PLS poor- or good-prognosis genes. Global status corresponds to the difference between low risk- and high risk-gene expression. The statistic tests, normalized enrichment score (NES) and FDR values are provided for each PLS experiment (poor- and good-prognosis genes variation and global status) in the Source Data file.

[6] = system: patient-derived HCC tumor spheroids; test: Cell viability (ATP, CellTiter-Glo) of patient-derived HCC tumorspheroids; type: cell-based, human; details: sorafenib 10 μM, 4 days; some of the patient tumors
Protocol: Patient-Derived HCC Tumor Spheroids. Tumorspheroids were generated from liver tissues from HCC patients undergoing surgical resection and dissociated using the Human Tumor Dissociation Kit. Total cell populations including epithelical (i.e., cancer cells/hepatocytes) and NPCs were used to generate multicellular tumorspheroids in Corning® 96-well Black/Clear Bottom Low Flange Ultra-Low Attachment Microplates (Corning). After 48 hours, HCC-derived spheroids were treated with nizatidine 50 μM, sorafenib 10 μM or DMSO vehicle control for 4 days. Fresh medium containing DMSO or drugs was added every day. Cell viability was assessed using CellTiter-Glo® (Luminescent Cell Viability Assay), according to manufacturer's instruction.

[7] = system: M1-polarized THP1-derived macrophages; test: RNA-Seq / GSEA of M1-polarized THP1-derived macrophages treated with Oxmetidine; type: cell-based, human
Protocol: M1 Macrophage Polarization and HRH2 Blocker Treatment. THP1 cells were cultured in RPMI 1640 Medium with GlutaMAX™-I supplement and HEPES and supplemented with 10% FBS and gentamycin (0.05 mg/mL). M1 macrophage polarization from THP-1 was performed as previously described (Yeung et al., J. Hepatol., 2015, 62: 607-616). To generate MO THP-1 macrophages, THP1 cells were treated with PMA 320 nM for 24 hours. To generate M1-polarized THP-1 macrophages, THP-1 cells were treated with […] then with 100 ng/ml LPS and 20 ng/ml IFNγ for 18 hours. Cells then were treated with HRH2 blockers 20 μM or DMSO vehicle for 72 hours.
RNA-Seq of M1 macrophages. RNA-Seq was performed on total RNA from MO macrophages, M1-polarized macrophages, and M1-polarized macrophages treated with Oxmetidine, Nizatidine or DMSO (triplicates). RNA-Seq was performed by the Biomedical Sequencing Facility (BSF) CEMM Research Center for Molecular Medicine of the Austrian Academy of Sciences, Vienna (Austria). Briefly, RNA-Seq libraries were generated from 300 ng of total RNA using TruSeq Stranded mRNA Sample Preparation Kit (Illumina, Part Number RS-122-2101). Following purification with poly-T oligo attached magnetic beads, the mRNA was fragmented using divalent cations at 94° C. for 2 minutes. The cleaved RNA fragments were copied into first strand cDNA using reverse transcriptase and random primers. Strand specificity was achieved by replacing dTTP with dUTP during second strand cDNA synthesis using DNA Polymerase I and RNase H. Following addition of a single ‘A’ base and subsequent ligation of the adapter on double stranded cDNA fragments, the products were purified and enriched with PCR (30 seconds at 98° C.; [10 seconds at 98° C., 30 seconds at 60° C., 30 seconds at 72° C.]×12 cycles; 5 minutes at 72° C.) to create the cDNA library. Surplus PCR primers were further removed by purification using AMPure XP beads (Beckman Coulter) and the final cDNA libraries were checked for quality and quantified using 2100 Bioanalyzer (Agilent). Libraries were sequenced on the Illumina HiSeq 4000 as Single-Read 50 base reads following Illumina's instructions. Image analysis and base calling were performed using RTA v2.7.3 and bcl2fastq v2.17.1.14.

[8] = Oxmetidine vs DMSO, 72 hours, GSEA
[9] = Oxmetidine vs DMSO, 72 hours, GSEA, in contrast to Nizatidine
[10] = single gene level, top 10 of Oxmetidine modulated genes

Compound: CN/C(=N/CCSCc1nc[nH]c1C)NC#N [Cimetidine]
- anti-HCC effect (HCC): anti-HCC effect
- natural killer cell activity in peripheral blood (natural killer cell): improves natural killer cell activity in peripheral blood

Compound: NC(N)=Nc1nc(CSCCC(N)=NS(N)(=O)=O)cs1 [Famotidine, 3-[[2-(diaminomethylideneamino)-1,3-thiazol-4-yl]methylsulfanyl]-N′-sulfamoyl-propanimidamide]
- reversal of the poor prognosis status of the prognostic liver signature (PLS) [1]: partial reversal of the PLS

Compound: NC(N)=Nc1nc(CSCCN/C=N/S(=O)(=O)c2ccc(Br)cc2)cs1 [Ebrotidine, 4-bromo-N-[[[2-[[[2-[(diaminomethylene)amino]-4-thiazolyl]methyl]thio]ethyl]amino]methylene] benzenesulfonamide]
- efficacy for the treatment of gastric or duodenal ulcers or erosive reflux oesophagitis [2]: as effective as Ranitidine
- activity against ethanol-, aspirin- or stress-induced gastric mucosal damage [3]: gastroprotective activity

Compound: Cc1ncc(-c2csc(N=C(N)N)n2)[nH]1 [Zaltidine, 2-[4-(2-methyl-1H-imidazol-5-yl)-1,3-thiazol-2-yl]guanidine]
- hepatotoxicity [4]: hepatotoxic

Compound: Cn1nc(CO)nc1NCCCOc1cccc(CN2CCCCC2)c1 [Lavoltidine]
- gastric carcinoid tumors [5]: produced gastric carcinoid tumors in rodents

Compound: O=S(=O)(NCCNC/C=C/c1ccc(Br)cc1)c1cccc2cnccc12 [H89]
- PLS poor-prognosis status upon perturbation of the HRH2/cAMP/PKA axis (HRH2/cAMP/PKA axis): reversed the induction of the PLS poor-prognosis status

Compound: CC(C)/N=C/Nc1ccc(-c2c[nH]cn2)cc1 [Mifentidine, N-(4-(1H-imidazol-4-yl)phenyl)-N′-(1-methylethyl)methanimidamide]
- gastric carcinoid tumors [5]: produced gastric carcinoid tumors in rodents

Compound: CNC(=O)c1cc(Oc2ccc(NC(=O)Nc3ccc(Cl)c(C(F)(F)F)c3)cc2)ccn1 [sorafenib]
- tumor spheroid response [6]: did not respond

Compound: Cc1[nH]cnc1CSCCNc1ncc(Cc2ccc3c(c2)OCO3)c(=O)[nH]1 [Oxmetidine, 5-(1,3-benzodioxol-5-ylmethyl)-2-[2-[(5-methyl-1H-imidazol-4-yl)methylsulfanyl]ethylamino]-1H-pyrimidin-6-one]
- antigen presentation related-pathways [7, 8]: improves antigen presentation related-pathways
- pathway mediating inflammation (TNFα, IL6) [7, 8]: strongly suppresses pathway mediating inflammation
- IFN response [7, 9]: strong reduction in IFN response
- cell metabolism [7, 9]: improvement of cell metabolism
- expression of key genes regulating lipid metabolism (ABCG1, ABCA1, SREBF1) [7, 10]: increase in expression of key genes regulating lipid metabolism
- pro-inflammatory gene expression (CCL7, CCL2, IL6) [7, 10]: decrease in pro-inflammatory gene expression

Compound: Nc1ncnc2c1nc(Sc1ccc(Cl)cc1)n2[C@@H]1O[C@@H]2COP(=O)(O)O[C@H]2[C@H]1O [8-CPT-cAMP]
- PLS poor-prognosis status upon perturbation of the HRH2/cAMP/PKA axis (HRH2/cAMP/PKA axis): induction of the poor-prognosis status of the PLS

Compound: NCCc1c[nH]cn1 [histamine]
- PLS poor-prognosis status upon perturbation of the HRH2/cAMP/PKA axis (HRH2/cAMP/PKA axis): Induction of the PLS poor-prognosis status
